# Assays:
# [1] = biological target: T1, Myt1 kinase (recombinant PMYT-1) (Homo sapiens, UniProt Q99640); test: Myt1 kinase binding assay (LanthaScreen Eu Kinase Binding Assay); details: 3 nM tracer 178, 2.5 nM PMYT-1, 1 nM Eu-labeled antibody; read-out: Myt1 kinase Binding IC50
# T1 construct: full length PMYT-1 was expressed by baculovirus in insect cells; purchased Invitrogen A30984; host or cells: insect cells (baculovirus)
# T1 sequence (Q99640 1-499): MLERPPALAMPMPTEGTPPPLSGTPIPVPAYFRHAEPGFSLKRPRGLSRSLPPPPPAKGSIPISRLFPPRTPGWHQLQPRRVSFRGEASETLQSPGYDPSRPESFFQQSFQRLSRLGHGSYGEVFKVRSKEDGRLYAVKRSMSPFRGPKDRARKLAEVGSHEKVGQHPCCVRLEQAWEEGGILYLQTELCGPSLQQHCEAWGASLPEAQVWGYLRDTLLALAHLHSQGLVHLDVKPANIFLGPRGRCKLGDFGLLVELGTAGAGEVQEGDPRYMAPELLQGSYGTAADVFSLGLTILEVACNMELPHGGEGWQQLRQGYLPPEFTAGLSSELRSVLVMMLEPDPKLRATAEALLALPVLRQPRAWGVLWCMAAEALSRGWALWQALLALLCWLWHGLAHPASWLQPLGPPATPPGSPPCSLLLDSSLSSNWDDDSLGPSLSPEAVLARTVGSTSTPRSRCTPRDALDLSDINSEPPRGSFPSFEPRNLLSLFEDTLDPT
# Method in brief: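 Compound binding to Myt1 kinase was assessed using the LanthaScreen Eu Kinase Binding Assay. This europium-based binding format was applied to quantify how strongly each compound bound to the Myt1 enzyme, and the binding affinity was reported for each compound as an IC50 value.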
# DAOY cells = test: Cell Titer Glo viability assay, DAOY cells; format: cell-based; details: Homo sapiens, 144 h, absolute EC50
# Experimental: (§1) Each of an ACHN renal cell carcinoma cell line (ATCC) and a DAOY medulloblastoma cell line, and an A427 lung cancer line were cultured in Minimum Essential Medium Eagle supplemented with 10% fetal calf serum (Sigma), 1% Penicillin-Streptomycin and 10 mM HEPES buffer (HyClone). Cell cultures were kept in a humidified incubator at 37 °C and 5% CO2. Cells were routinely tested for Mycoplasma contamination.
# ACHN cells, DAOY cells, or A427 cells were seeded at a density of 400, 250, or 500 cells per well respectively, in tissue culture treated 384 well plates (Corning Costar). After overnight incubation, cells were treated with drugs at concentrations ranging from 17 to 10 000 nM. Viability compared to untreated control was assessed at 144 h using Cell Titer Glo assay 2.0 (Promega). […] “NT” means the compounds was not tested in the indicated cells.
# [2] = biological target: T2, Wee1A kinase (CDK1 Tyr15 phosphorylation in ACHN renal cell carcinoma cells) (Homo sapiens, UniProt P30291); test: High-content imaging of pCdk1 Y15, Wee1A kinase target engagement in ACHN cells; format: cell-based; details: 4 h treatment, nuclear positivity for pCdk1 Y15 vs DMSO control, read-out: CDK1 Tyr15 Phosphorylation EC50
# T2 construct: pCDK1 Tyr15 immunofluorescence read-out
# Method in brief: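 EC50 values come from the per-well fraction of cells with nuclear pCdk1 Y15 staining, normalised to DMSO control, by automated immunofluorescence imaging. Cells were ACHN renal carcinoma, treated 4 h with compound at 7–5,000 nM or 0.3–200 nM.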
# [3] = biological target: T3, Myt1 kinase (CDK1 Thr14 phosphorylation in DAOY medulloblastoma cells) (Homo sapiens, UniProt Q99640); test: AlphaLISA assay, Myt1 kinase target engagement (phospho-CDK1 Thr14) in DAOY cells; format: cell-based; details: 4 h treatment, read-out: CDK1 Thr14 Phosphorylation EC50
# T3 construct: pCDK1 Thr14 AlphaLISA read-out
# T3 sequence (Q99640 1-499): T1 sequence (Q99640 1-499)
# Method in brief: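 Cells seeded at 10,000 (DAOY) or 20,000 (ACHN) per well, treated 24 h later for 4 h with compound at 7–5000 nM. Lysates analysed by AlphaLISA SureFire Ultra phospho-CDK1 (Thr14) with donor/acceptor beads; EC50 from dose-response curves.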
# [4] = biological target: T4, recombinant human Wee1A kinase (Homo sapiens, UniProt P30291); test: Wee1A kinase binding assay (LanthaScreen Eu time-resolved FRET); details: 30 nM tracer 178, 5 nM Wee1A kinase, 2 nM Eu-labeled antibody; 60 minutes at room temperature; read-out: Wee1A kinase Binding IC50
# T4 construct: full length Wee1 kinase was expressed by baculovirus in insect cells; purchased Invitrogen PV3817; host or cells: insect cells (baculovirus)
# Method in brief: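 Full-length, baculovirus-expressed GST-tagged Wee1A (5 nM) was mixed with 2 nM Eu-anti-GST antibody, 30 nM kinase tracer 178 and compound (1% DMSO). Buffer was 50 mM HEPES pH 7.5, 10 mM MgCl2, 1 mM EGTA, 0.01% Brij-35, incubated 60 min at room temperature. TR-FRET 665/615 nm emission ratios from duplicates were curve-fitted.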
# ACHN cells = test: Cell Titer Glo viability assay, ACHN cells; format: cell-based; details: Homo sapiens, 144 h, absolute EC50
# Method in brief: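 Cells grown in MEM with 10% FCS were seeded at 500 (A427), 400 (ACHN) or 250 (DAOY) per well and treated the next day with compound at 17 to 10 000 nM. Viability relative to untreated control was read at 144 h by CellTiter-Glo 2.0.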
# [5] = biological target: T5, Myt1 kinase (CDK1 Thr14 phosphorylation in ACHN renal cell carcinoma cells) (Homo sapiens, UniProt Q99640); test: AlphaLISA assay, Myt1 kinase target engagement (phospho-CDK1 Thr14) in ACHN cells; format: cell-based; details: ACHN cells (marked *); 4 h treatment
# T5 construct: pCDK1 Thr14 AlphaLISA read-out
# T5 sequence (Q99640 1-499): T1 sequence (Q99640 1-499)
# Experimental: as §1
# For target engagement assessment of Myt1 kinase inhibition, quantification of Cdk1 phosphorylated on threonine 14 was detected using the AlphaLISA® SureFire® Ultra™ Human Phospho-CDK1 (Thr14) assay (Perkin Elmer). DAOY or ACHN cells were seeded into tissue culture treated 96-well plates (VWR) to a density of 10,000 or 20,000 cells per well respectively. 24 h post seeding cells were treated for 4 h with compounds at concentrations ranging from 7 to 5000 nM. Cells were washed with PBS and lysed in 50 μl AlphaLISA lysis buffer before freezing at −80 C. Ten ul of the lysate was transferred to 384 well plates and incubated with AlphaLISA donor and acceptor beads according to the manufacturer's instructions. Dose response curves and EC50 values were calculated and visualized using GraphPad Prism version 9. Target engagement for Myt1 kinase can also be measured using the same AlphaLISA assay in OVCAR3 cells, an ovarian cancer cell line. NIH:OVCAR-3 (OVCAR3) cells are cultured in RPMI-1640 medium supplemented with 0.01 mg/ml insulin, 20% FBS, 1% Penicillin-Streptomycin and 10 mM HEPES buffer. 14,000 cells per well are seeded into 96 well tissue culture plates in full medium. Twenty-four hours post seeding, cells are treated with compound for 4 hours at concentrations ranging from 0.017 nM to 1000 nM.
# T4 sequence (P30291 whole entry): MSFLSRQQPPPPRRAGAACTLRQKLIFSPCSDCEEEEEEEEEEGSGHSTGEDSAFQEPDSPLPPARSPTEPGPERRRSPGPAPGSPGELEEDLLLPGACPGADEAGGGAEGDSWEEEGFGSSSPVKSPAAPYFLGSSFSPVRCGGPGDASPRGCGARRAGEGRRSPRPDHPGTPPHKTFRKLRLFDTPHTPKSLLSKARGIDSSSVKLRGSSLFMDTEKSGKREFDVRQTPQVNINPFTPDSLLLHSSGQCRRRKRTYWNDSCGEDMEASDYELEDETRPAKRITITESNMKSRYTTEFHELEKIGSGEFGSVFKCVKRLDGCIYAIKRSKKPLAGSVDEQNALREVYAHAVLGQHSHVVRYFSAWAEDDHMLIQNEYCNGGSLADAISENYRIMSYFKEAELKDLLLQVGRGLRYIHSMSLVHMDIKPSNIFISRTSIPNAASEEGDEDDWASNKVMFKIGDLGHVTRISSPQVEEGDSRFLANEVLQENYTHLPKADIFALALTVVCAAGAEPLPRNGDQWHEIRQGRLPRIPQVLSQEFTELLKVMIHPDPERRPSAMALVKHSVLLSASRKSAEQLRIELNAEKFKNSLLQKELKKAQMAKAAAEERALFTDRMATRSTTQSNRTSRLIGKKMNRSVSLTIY
# T2 sequence (P30291 whole entry): as above
IC50 [1],EC50 [2],EC50 [3],IC50 [4],EC50 (ACHN cells),EC50 [5],SMILES,EC50 (DAOY cells)
< 20 nM,< 100 nM,< 200 nM,< 10 nM,≤ 100 nM,–,"C=CCn1c(=O)c2cnc(Nc3ccc4occc4c3)nc2n1-c1cccc(OC2CCN(C)CC2)n1 [Compound 309, 2-allyl-6-(1-benzofuran-5-ylamino)-1-[6-(1-methyl-4-piperidyloxy)-2-pyridyl]-1,2-dihydro-3H-1,2,5,7-tetraazainden-3-one]",≤ 100 nM
< 20 nM,< 100 nM,200 to 500 nM,< 10 nM,≤ 100 nM,–,"C=CCn1c(=O)c2cnc(Nc3cccc(C)c3)nc2n1-c1cccc(OC2CCN(C)CC2)n1 [Compound 191, 2-allyl-1-[6-(1-methyl-4-piperidyloxy)-2-pyridyl]-6-m-toluidino-1,2-dihydro-3H-1,2,5,7-tetraazainden-3-one]",≤ 100 nM
< 20 nM,< 100 nM,–,< 10 nM,≤ 100 nM,< 200 nM,"C=CCn1c(=O)c2cnc(Nc3ccc4nn(C(C)(C)C)cc4c3)nc2n1-c1cccc(OC2CCN(C)CC2)n1 [Compound 396, 2-allyl-6-((2-(tert-butyl)-2H-indazol-5-yl)amino)-1-(6-((1-methylpiperidin-4-yl)oxy)pyridin-2-yl)-1,2-dihydro-3H-pyrazolo[3,4-d]pyrimidin-3-one]",–
< 20 nM,< 100 nM,–,< 10 nM,≤ 100 nM,< 200 nM,"C=CCn1c(=O)c2cnc(Nc3ccc4c(cnn4CCC)c3)nc2n1-c1cccc(OC2CCNCC2)n1 [Compound 390, 2-allyl-1-[6-(4-piperidyloxy)-2-pyridyl]-6-(1-propyl-1H-indazol-5-ylamino)-1,2-dihydro-3H-1,2,5,7-tetraazainden-3-one]",–
< 20 nM,< 100 nM,–,< 10 nM,≤ 100 nM,< 200 nM,"C=CCn1c(=O)c2cnc(Nc3ccc4nn(CC)cc4c3)nc2n1-c1cccc(OC2CCN(C)CC2)n1 [Compound 282, 2-allyl-6-((2-ethyl-2H-indazol-5-yl)amino)-1-(6-((1-methylpiperidin-4-yl)oxy)pyridin-2-yl)-1,2-dihydro-3H-pyrazolo[3,4-d]pyrimidin-3-one]",–
20 to 100 nM,< 100 nM,–,< 10 nM,≤ 100 nM,500 to 1000 nM,"CN1CCC(Oc2cccc(-n3c4nc(Nc5ccc6c(ccn6C)c5)ncc4c(=O)n3C)n2)CC1 [Compound 360, 2-methyl-6-((1-methyl-1H-indol-5-yl)amino)-1-(6-((1-methylpiperidin-4-yl)oxy)pyridin-2-yl)-1,2-dihydro-3H-pyrazolo[3,4-d]pyrimidin-3-one]",–
< 20 nM,< 100 nM,–,< 10 nM,≤ 100 nM,200 to 500 nM,"C=CCn1c(=O)c2cnc(Nc3ccc4c(c3)ncn4C(C)C)nc2n1-c1cccc(OC2CCN(C)CC2)n1 [Compound 400, 2-allyl-6-((1-isopropyl-1H-benzo[d]imidazol-5-yl)amino)-1-(6-((1-methylpiperidin-4-yl)oxy)pyridin-2-yl)-1,2-dihydro-3H-pyrazolo[3,4-d]pyrimidin-3-one]",–
< 20 nM,< 100 nM,–,< 10 nM,≤ 100 nM,< 200 nM,"C=CCn1c(=O)c2cnc(Nc3ccc4c(cnn4CCC)c3)nc2n1-c1cccc(OC2CCN(C)CC2)n1 [Compound 385, 2-allyl-1-[6-(1-methyl-4-piperidyloxy)-2-pyridyl]-6-(1-propyl-1H-indazol-5-ylamino)-1,2-dihydro-3H-1,2,5,7-tetraazainden-3-one]",–
20 to 100 nM,< 100 nM,–,< 10 nM,≤ 100 nM,200 to 500 nM,"C=CCn1c(=O)c2cnc(Nc3ccc4c(cnn4C)c3)nc2n1-c1ccnc(OC2CCN(C)CC2)n1 [Compound 279, 2-allyl-6-((1-methyl-1H-indazol-5-yl)amino)-1-(2-((1-methylpiperidin-4-yl)oxy)pyrimidin-4-yl)-1,2-dihydro-3H-pyrazolo[3,4-d]pyrimidin-3-one]",–
< 20 nM,< 100 nM,–,< 10 nM,≤ 100 nM,200 to 500 nM,"C=CCn1c(=O)c2cnc(Nc3ccc4c(cnn4CC)c3)nc2n1-c1cccc(OC2CCNCC2)n1 [Compound 280, 2-allyl-6-((1-ethyl-1H-indazol-5-yl)amino)-1-(6-(piperidin-4-yloxy)pyridin-2-yl)-1,2-dihydro-3H-pyrazolo[3,4-d]pyrimidin-3-one]",–
100 to 500 nM,< 100 nM,–,< 10 nM,≤ 100 nM,> 1000 nM,"C=CCn1c(=O)c2cnc(Nc3ccc4c(cnn4C)c3)nc2n1-c1cccc(NC2CCN(C)CC2)n1 [Compound 129, 6-[(1-methyl-1H-indazol-5-yl)amino]-1-{6-[(1-methylpiperidin-4-yl)amino]pyridin-2-yl}-2-(prop-2-en-1-yl)-1H,2H,3H-pyrazolo[3,4-d]pyrimidin-3-one]",–
20 to 100 nM,< 100 nM,–,< 10 nM,≤ 100 nM,< 200 nM,"C=CCn1c(=O)c2cnc(Nc3ccc4c(ccn4C(C)=O)c3)nc2n1-c1cccc(OC2CCN(C)CC2)n1 [Compound 392, 6-((1-acetyl-1H-indol-5-yl)amino)-2-allyl-1-(6-((1-methylpiperidin-4-yl)oxy)pyridin-2-yl)-1,2-dihydro-3H-pyrazolo[3,4-d]pyrimidin-3-one]",–
< 20 nM,< 100 nM,–,< 10 nM,≤ 100 nM,200 to 500 nM,"C=CCn1c(=O)c2cnc(Nc3ccc4c(cnn4C)c3)nc2n1-c1cccc(OC2CCCN(C)CC2)n1 (single isomer, unassigned) [Compound 373]",–

# Source: patent US20260364080A1, “PYRAZOLO-PYRIMIDINONE COMPOUNDS FOR USE IN METHODS OF INHIBITING WEE1 A KINASE” (Acrivon Therapeutics, Inc., priority 2023, published 2026)
